Measured values reported in US20260215428A1, “WEED CONTROL METHOD” (SYNGENTA CROP PROTECTION AG, priority 2023, published 2026).

Test system: Lolium multiflorum
Assay: Further glasshouse test versus other ACCase-inhibiting herbicides, Table B2-1
Format: in vivo
Details: 21 days after application
Description: Further tests were employed to test the efficacy of a compound of Formula I versus other ACCase-inhibiting herbicides. The five main targets were Lolium multiflorum, Eleusine indica, Digitaria insularis, Sorghum halepense and Echinochloa crus-galli. Collectively, the populations contained all the major target-site resistance mutations affecting ACCase herbicides. Two L. multiflorum (LM-NTSR-1 and LM-NTSR-2) and one E. crus-galli (ECG-NTSR-1) populations were characterised exclusively by non-target-site resistance (“NTSR”). The target-site resistant L. multiflorum and E. indication populations were 100% homozygous for different ACCase mutations whilst the D. insularis, S. halepense and E. crus-galli samples contained a mixture of homozygous wild and mutant individuals at different genotypic frequencies. Additional underlying NTSR cannot be ruled out in the populations characterised by target-site resistance.
Around 50 seeds of each of the 24 weed populations were sown in 12-cm pots containing a mixture of peat and compost in a 1:1 ratio. The pots were watered, fertilised and kept in controlled glasshouse conditions set at 24° C./16 hr day, 18° C. night, 65% relative humidity, and a photon flux density of approximately 250 μmol quanta m^−2 s^−1 for Lolium multiflorum. The E. indica, D. insularis, S. halepense and E. crus-galli plants were kept in a separate glasshouse bay characterised by a 17 H photoperiod of 180 μmol m^−2 s^−1 with temperatures of 25° C. day and 19° C. night and 65% relative humidity. When the plants were at the two to four-leaf stage, they were treated with the various ACCase-inhibiting herbicides at 0, 15, 30, 60, 120 and 240 g ai ha^−1 in a spray cabinet mounted with a single mobile Teejet flat fan nozzle (11002VS) calibrated to deliver 200 L ha^−1 at 200 kPa. The L. multiflorum populations were treated by a compound of Formula Ic, clodinafop-propargyl, pinoxaden, cycloxydim and clethodim and the warm season grass weeds E. indica, D. insularis, S. halepense and E. crus-galli were sprayed with a Compound Ic and the commonly employed haloxyfop-methyl and clethodim. Three replicate pots were used per population. Plants were assessed for visual damage compared to the untreated control 21 days after application (0=0% damage; 100=100% damage).

[1] = population LM-NTSR-1 (non-target-site resistance), 15 g/ha
[2] = population LM-NTSR-1 (non-target-site resistance), 30 g/ha
[3] = population LM-NTSR-1 (non-target-site resistance), 60 g/ha
[4] = population LM-NTSR-1 (non-target-site resistance), 120 g/ha
[5] = population LM-NTSR-1 (non-target-site resistance), 240 g/ha
[6] = population LM-NTSR-2 (non-target-site resistance), 15 g/ha
[7] = population LM-NTSR-2 (non-target-site resistance), 30 g/ha
[8] = population LM-NTSR-2 (non-target-site resistance), 60 g/ha
[9] = population LM-NTSR-2 (non-target-site resistance), 120 g/ha
[10] = population LM-NTSR-2 (non-target-site resistance), 240 g/ha

Compound | visual damage (biotype C2088R, 15 g/ha) [%] | visual damage (biotype C2088R, 30 g/ha) [%] | visual damage (biotype C2088R, 60 g/ha) [%] | visual damage (biotype C2088R, 120 g/ha) [%] | visual damage (biotype C2088R, 240 g/ha) [%] | visual damage (biotype D2078G, 15 g/ha) [%] | visual damage (biotype D2078G, 30 g/ha) [%] | visual damage (biotype D2078G, 60 g/ha) [%] | visual damage (biotype D2078G, 120 g/ha) [%] | visual damage (biotype D2078G, 240 g/ha) [%] | visual damage (biotype I1781L, 15 g/ha) [%] | visual damage (biotype I1781L, 30 g/ha) [%] | visual damage (biotype I1781L, 60 g/ha) [%] | visual damage (biotype I1781L, 120 g/ha) [%] | visual damage (biotype I1781L, 240 g/ha) [%] | visual damage (biotype Sensitive, 15 g/ha) [%] | visual damage (biotype Sensitive, 30 g/ha) [%] | visual damage (biotype Sensitive, 60 g/ha) [%] | visual damage (biotype Sensitive, 120 g/ha) [%] | visual damage (biotype Sensitive, 240 g/ha) [%] | also measured
CCCC(=NOCC)C1=C(O)CC(C2CCCSC2)CC1=O (centres unmarked) [Cycloxydim, cycloxydim] | 0 | 0 | 0 | 0 | 0 | 0 | 0 | 0 | 3 | 7 | 0 | 0 | 7 | 13 | 13 | 0 | 0 | 0 | 88 | 100 | visual damage (biotype W1999S, 15 g/ha): 0%; visual damage (biotype W1999S, 30 g/ha): 0%; visual damage (biotype W1999S, 60 g/ha): 0%; visual damage (biotype W1999S, 120 g/ha): 0%; visual damage (biotype W1999S, 240 g/ha): 0%; visual damage (biotype W2027C, 15 g/ha): 0%; visual damage (biotype W2027C, 30 g/ha): 0%; visual damage (biotype W2027C, 60 g/ha): 0%; visual damage (biotype W2027C, 120 g/ha): 0%; visual damage (biotype W2027C, 240 g/ha): 50%; visual damage [1]: 0%; visual damage [2]: 0%; visual damage [3]: 0%; visual damage [4]: 3%; visual damage [5]: 60%; visual damage [6]: 0%; visual damage [7]: 0%; visual damage [8]: 0%; visual damage [9]: 0%; visual damage [10]: 0%
CCc1cc(C)cc(CC)c1-c1c(OC(=O)C(C)(C)C)n2n(c1=O)CCOCC2 [Pinoxaden, pinoxaden] | 0 | 0 | 0 | 3 | 30 | 3 | 3 | 10 | 45 | 90 | 7 | 7 | 27 | 73 | 98 | 100 | 100 | 100 | 100 | 100 | visual damage (biotype W1999S, 15 g/ha): 0%; visual damage (biotype W1999S, 30 g/ha): 0%; visual damage (biotype W1999S, 60 g/ha): 0%; visual damage (biotype W1999S, 120 g/ha): 7%; visual damage (biotype W1999S, 240 g/ha): 33%; visual damage (biotype W2027C, 15 g/ha): 0%; visual damage (biotype W2027C, 30 g/ha): 10%; visual damage (biotype W2027C, 60 g/ha): 62%; visual damage (biotype W2027C, 120 g/ha): 93%; visual damage (biotype W2027C, 240 g/ha): 100%; visual damage [1]: 30%; visual damage [2]: 85%; visual damage [3]: 97%; visual damage [4]: 100%; visual damage [5]: 100%; visual damage [6]: 0%; visual damage [7]: 0%; visual damage [8]: 0%; visual damage [9]: 65%; visual damage [10]: 53%
